Assay results taken from US20070167526A1, “Topical mecamylamine formulations for ocular administration and uses thereof” (priority 2005, published 2007).
Like-named read-outs stand apart in the source and are kept apart here.

Key:
[1] = Distribution of mecamylamine into ocular tissue of rabbits following intravenous administration (Example 9); type: in vivo, New Zealand white rabbit; settings: rabbit; for concentration at 1 h / concentration at 2 h / concentration at 4 h / concentration at 6 h / concentration at 0 h / concentration at 0.5 h: male, iv; for concentration at 1 h / concentration at 2 h / concentration at 4 h / concentration at 6 h / concentration at 0 h / concentration at 0.5 h / Concentration of mecamylamine in the retina/choroid, Mean: 15 mg/kg; for Concentration of mecamylamine in the retina/choroid, Mean: hour 6, listed as MEC
Protocol: Mecamylamine was administered intravenously to male New Zealand white rabbits (approximately 2.5-3 kg (Kralek Frams, Turlock, Calif.)) at a dose of 15 mg/kg (dissolved in sterile 0.9% NaCl for injection) over either over 60 minutes or 6 hours. Drug concentrations were measured as described previously at different time points in the plasma, the vitreous and at 6 hours in the retina-choroid tissue. For both groups, the vitreous(>0.1 mL) was withdrawn at 8 time points, with each animal being sampled no more than twice in total: pre-dose, 5 minutes, 15 minutes, 30 minutes, 1, 2, 4, and 6 hours. At all time points, only two vitreous samples were collected in order to minimize pain and damage to rabbit eyes, in compliance with IACUC guidelines. Plasma samples were also collected at the same 8 time points: pre-dose, 5 minutes, 15 minutes, 30 minutes, 1, 2, 4, and 6 hours, with duplicate samples collected at each time point. At 6 hours, the animals were sacrificed and the vitreous and retina-choroid tissue were collected from all animals. Clinical observations were recorded periodically throughout the study. Biological samples for this study were analyzed using an LC/MS/MS method (see Example 6) with a lower limit of quantitation of 0.5 ng/mL.

[2] = tested on: eyes of New Zealand White rabbits; experiment: Pupil diameter, pupillary response and mortality observations after topical ocular instillation in rabbits (Example 10); settings: rabbit; 2 drops of 50 μL topically
Protocol: The objective of this study was to evaluate the ocular pharmacokinetics of a 2% Mecamylamine in a GELRITE solution up to 6 hours following topical instillation into the eyes of New Zealand White rabbits. Nine New Zealand White female rabbits of minimum age of 9 weeks and weight 2-3 kg were obtained from The Rabbit Source (Ramona, Calif.) were used in the study.
On day 1, 2 drops of 50 μL of mecamylamine or vehicle were administered topically into the appropriate eye(s) of each animal as described in Table 13. The time of each dose administration was recorded.

[3] = tested on: VEGF-induced endothelial tube formation; experiment: VEGF-induced endothelial tube formation in vitro; type: cell-based
healthy adults = experiment: Phase 1 ocular and systemic safety of mecamylamine ophthalmic solution (Example 11); type: in vivo; settings: human
Excerpt: A phase 1 study entitled: “A Phase 1, Double-Masked, Randomized, 1-Day and 14-Day Escalating Dose Study to Assess the Ocular and Systemic Safety of Mecamylamine Ophthalmic Solution” was initiated in the United States in healthy adults. The safety objectives of this study were to evaluate the ocular and systemic safety of 4 concentrations of mecamylamine ophthalmic solution following 1-day (administered twice) and 14-day (BID) administration. The dose levels of mecamylamine ophthalmic solution evaluated were 0.03%, 0.1%, 0.3%, and 1%. A summary of the composition of the mecamylamine ophthalmic solution and placebo formulation is shown below in Table 7.
In the 1-day portion of the study, 10 subjects in each group were dosed in a single eye on two occasions with 6 hours between dosing. […] Subjects were evaluated for local (ocular) safety and tolerability based upon evaluation of ocular symptoms, ocular comfort, best-corrected visual acuity, biomicroscopy with fluorescein staining, measurement of intraocular pressure (IOP) by Goldman applanation tonometry, ophthalmoscopy, pupil size, and Schirmer's Test. They were also evaluated for systemic safety based upon assessment of physical examination, 12-lead ECG, vital signs, adverse events, hematology, clinical chemistry, and, urinalysis.

[4] = Single- and multiple-dose rabbit ocular pharmacokinetics (Example 7); type: in vivo, Dutch-belted rabbit
Protocol: Dutch-belted male rabbits (Covance, Denver, Pa.) aged 2.5 to 4.5 months and with weights of 1.5 to 2.5 kg were given a 3% solution of mecamylamine hydrochloride (polymer-free solution) by ocular installation either as a single dose or 6 doses (50 microliters per dose), approximately 1.5 hours apart. Serial blood samples (approximately 0.5 mL each) were collected by direct venipuncture from a marginal ear vein into a blood collection tube containing EDTA as anticoagulant from various animal groups at 0.5 hours post dose, 2 hours post dose. A terminal blood sample was obtained from all animals just prior to euthanasia. Animals were euthanized 1, 3 or 6 hours after administration of the drug solution. Ocular tissues (listed in Table 7) were obtained after euthanasia.
The concentration of mecamylamine in plasma and ocular tissues was measured using an LC MS/MS method as described in Example 6.

[5] = rabbit, 3% solution, 1 hour to 6 hours after dosing

CNC1(C)C2CCC(C2)C1(C)C (stereo not shown) [mecamylamine, N-2,3,3-tetramethylbicyclo(2.2.1)heptan-2-amine]
concentration at 1 h ([1]; New Zealand White, plasma, 15 mg/kg i.v. 1 hr infusion, hour 1, read-out: Concentration of mecamylamine in the plasma, Mean): 1820 ng/mL | concentration at 2 h ([1]; New Zealand White, plasma, 15 mg/kg i.v. 1 hr infusion, hour 2, read-out: Concentration of mecamylamine in the plasma, Mean): 455 ng/mL | concentration at 4 h ([1]; New Zealand White, plasma, 15 mg/kg i.v. 1 hr infusion, hour 4, read-out: Concentration of mecamylamine in the plasma, Mean): 227 ng/mL | concentration at 6 h ([1]; New Zealand White, plasma, 15 mg/kg i.v. 1 hr infusion, hour 6, read-out: Concentration of mecamylamine in the plasma, Mean): 102 ng/mL | concentration at 1 h ([1]; New Zealand White, plasma, 15 mg/kg i.v. 6 hr infusion, hour 1, read-out: Concentration of mecamylamine in the plasma, Mean): 470 ng/mL | concentration at 2 h ([1]; New Zealand White, plasma, 15 mg/kg i.v. 6 hr infusion, hour 2, read-out: Concentration of mecamylamine in the plasma, Mean): 572 ng/mL | concentration at 4 h ([1]; New Zealand White, plasma, 15 mg/kg i.v. 6 hr infusion, hour 4, read-out: Concentration of mecamylamine in the plasma, Mean): 717 ng/mL | concentration at 6 h ([1]; New Zealand White, plasma, 15 mg/kg i.v. 6 hr infusion, hour 6, read-out: Concentration of mecamylamine in the plasma, Mean): 313 ng/mL | concentration at 6 h ([1]; New Zealand White, retina/choroid, 15 mg/kg i.v. 1 hr infusion, hour 6, read-out: Concentration of mecamylamine in the retina/choroid, Mean): 261 ng/mL | concentration at 6 h ([1]; New Zealand White, retina/choroid, 15 mg/kg i.v. 6 hr infusion, hour 6, read-out: Concentration of mecamylamine in the retina/choroid, Mean): 1530 ng/mL | concentration at 0 h ([1]; New Zealand white, plasma, 15 mg/kg i.v. 1 hr infusion, hour 0, read-out: Concentration of mecamylamine in the plasma, Mean): 48.7 ng/mL | concentration at 0.5 h ([1]; New Zealand white, plasma, 15 mg/kg i.v. 1 hr infusion, hour 0.5, read-out: Concentration of mecamylamine in the plasma, Mean): 5330 ng/mL | concentration at 0 h ([1]; New Zealand white, plasma, 15 mg/kg i.v. 6 hr infusion, hour 0, read-out: Concentration of mecamylamine in the plasma, Mean): 0 ng/mL | concentration at 0.5 h ([1]; New Zealand white, plasma, 15 mg/kg i.v. 6 hr infusion, hour 0.5, read-out: Concentration of mecamylamine in the plasma, Mean): 350 ng/mL | concentration at 0 h ([1]; New Zealand white, vitreous humor, 15 mg/kg i.v. 1 hr infusion, hour 0, read-out: Concentration of mecamylamine in the vitreous humor, Mean): 43 ng/mL | concentration at 0.5 h ([1]; New Zealand white, vitreous humor, 15 mg/kg i.v. 1 hr infusion, hour 0.5, read-out: Concentration of mecamylamine in the vitreous humor, Mean): 717 ng/mL | concentration at 1 h ([1]; New Zealand white, vitreous humor, 15 mg/kg i.v. 1 hr infusion, hour 1, read-out: Concentration of mecamylamine in the vitreous humor, Mean): 1110 ng/mL | concentration at 2 h ([1]; New Zealand white, vitreous humor, 15 mg/kg i.v. 1 hr infusion, hour 2, read-out: Concentration of mecamylamine in the vitreous humor, Mean): 900 ng/mL | concentration at 4 h ([1]; New Zealand white, vitreous humor, 15 mg/kg i.v. 1 hr infusion, hour 4, read-out: Concentration of mecamylamine in the vitreous humor, Mean): 430 ng/mL | concentration at 6 h ([1]; New Zealand white, vitreous humor, 15 mg/kg i.v. 1 hr infusion, hour 6, read-out: Concentration of mecamylamine in the vitreous humor, Mean): 174 ng/mL | concentration at 0 h ([1]; New Zealand white, vitreous humor, 15 mg/kg i.v. 6 hr infusion, hour 0, read-out: Concentration of mecamylamine in the vitreous humor, Mean): 5.6 ng/mL | concentration at 0.5 h ([1]; New Zealand white, vitreous humor, 15 mg/kg i.v. 6 hr infusion, hour 0.5, read-out: Concentration of mecamylamine in the vitreous humor, Mean): 59.9 ng/mL | concentration at 1 h ([1]; New Zealand white, vitreous humor, 15 mg/kg i.v. 6 hr infusion, hour 1, read-out: Concentration of mecamylamine in the vitreous humor, Mean): 138 ng/mL | concentration at 2 h ([1]; New Zealand white, vitreous humor, 15 mg/kg i.v. 6 hr infusion, hour 2, read-out: Concentration of mecamylamine in the vitreous humor, Mean): 223 ng/mL | concentration at 4 h ([1]; New Zealand white, vitreous humor, 15 mg/kg i.v. 6 hr infusion, hour 4, read-out: Concentration of mecamylamine in the vitreous humor, Mean): 408 ng/mL | concentration at 6 h ([1]; New Zealand white, vitreous humor, 15 mg/kg i.v. 6 hr infusion, hour 6, read-out: Concentration of mecamylamine in the vitreous humor, Mean): 458 ng/mL | Concentration of mecamylamine in the retina/choroid, Mean ([1]; 15 mg/kg i.v. 1 hr infusion): 260.8 ng/mL | Concentration of mecamylamine in the retina/choroid, Mean ([1]; 15 mg/kg i.v. 6 hr infusion): 1534.3 ng/mL | peak mean plasma concentration ([1]; 15 mg/kg i.v. over longer period (6 hours)): 717 ng/mL | time of peak plasma levels ([1]; 15 mg/kg i.v. over shorter period): ≤ 0.5 h | peak mean plasma concentration ([1]; 15 mg/kg i.v. over shorter period (60 minutes)): 5,331 ng/mL | highest mean level in the vitreous ([1]; longer infusion period, seen at 6 hours): 458 ng/mL | highest mean level in the vitreous ([1]; shorter infusion period, seen at 1 hour): 1110 ng/mL | mortality [2]: no mortality | VEGF-induced endothelial tube formation [3]: inhibited | best-corrected visual acuity (healthy adults): no change in best corrected visual acuity | pupil size (healthy adults): none of the subjects tested showing an increase in pupil diameter | Kp ([4]; male, Dutch-belted, retina/choroid and plasma, topical, 50 µL of 3% solution per dose, rabbit, 3% solution, read-out: ratio of mecamylamine concentration in the retina/choroid to the plasma): 37 to 147 | Plasma levels ([4]; rabbit, 3% solution): ≤ 50 ng/mL | Mean peak levels in aqueous humor [4, 5]: 310 to 920 ng/mL | Mean peak levels in the retina/choroid [4, 5]: 171 to 510 ng/g | mecamylamine concentration in the retina/choroid after 6 hourly doses relative to single dose ([4]; rabbit, 1 hour after 6 hourly doses): five-fold | mean maximum concentration of mecamylamine detected in plasma ([4]; rabbits, topical ocular, single dose and multi-dose studies): less than 70 ng/mL
